Data: patent US8802597B2, “Herbicidal pyrimidines” (E I du Pont de Nemours and Company, priority 2003, dated 2014)

Key:
Assay in all cases: Test C pre/postemergence
Type in all cases: in vivo
[1] = system: cocklebur (Xanthium strumarium); conditions: for Plant response rating, Cocklebur: Preemergence; for Plant response rating (scale of 0 to 100), Cocklebur / Cocklebur plant response rating: Postemergence; for Cocklebur plant response rating: scale 0 to 100 (0 no effect, 100 complete control)
Outline: (§1)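 Pre: seeds planted, sprayed same day. Post: 1- to 4-leaf plants (2–18 cm). Formulation: non-phytotoxic solvent + surfactant. Greenhouse 12–14 d; visual % control vs untreated, 0–100.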

[2] = system: common (oilseed) sunflower (Helianthus annuus); conditions: Preemergence
Outline: as §1

[3] = system: common ragweed (Ambrosia elatior); conditions: for Plant response rating, Ragweed: Preemergence; for Plant response rating (scale of 0 to 100), Ragweed / Ragweed plant response rating: Postemergence; for Ragweed plant response rating: scale 0 to 100 (0 no effect, 100 complete control)
Outline: as §1

[4] = system: crabgrass (Digitaria sanguinalis); conditions: for Plant response rating, Crabgrass: Preemergence; for Plant response rating (scale of 0 to 100), Crabgrass / Crabgrass plant response rating: Postemergence; for Crabgrass plant response rating: scale 0 to 100 (0 no effect, 100 complete control)
Outline: as §1

[5] = system: eastern black nightshade (Solanum ptycanthum); conditions: Preemergence
Outline: as §1

[6] = system: giant foxtail (Setaria faberii); conditions: for Plant response rating, Foxtail, Giant: Preemergence; for Plant response rating (scale of 0 to 100), Foxtail, Giant / Foxtail, Giant plant response rating: Postemergence; for Foxtail, Giant plant response rating: scale 0 to 100 (0 no effect, 100 complete control)
Outline: as §1

kochia (Kochia scoparia) = conditions: for Plant response rating, Kochia: Preemergence; for Plant response rating (scale of 0 to 100), Kochia / Kochia plant response rating: Postemergence; for Kochia plant response rating: scale 0 to 100 (0 no effect, 100 complete control)
Outline: as §1

[7] = system: morningglory (Ipomoea coccinea); conditions: for Plant response rating, Morningglory: Preemergence; for Plant response rating (scale of 0 to 100), Morningglory / Morningglory plant response rating: Postemergence; for Morningglory plant response rating: scale 0 to 100 (0 no effect, 100 complete control)
Outline: as §1

[8] = system: pigweed (Amaranthus retroflexus); conditions: for Plant response rating, Pigweed: Preemergence; for Plant response rating (scale of 0 to 100), Pigweed / Pigweed plant response rating: Postemergence; for Pigweed plant response rating: scale 0 to 100 (0 no effect, 100 complete control)
Outline: as §1

[9] = system: velvetleaf (Abutilon theophrasti); conditions: for Plant response rating, Velvetleaf: Preemergence; for Plant response rating (scale of 0 to 100), Velvetleaf / Velvetleaf plant response rating: Postemergence; for Velvetleaf plant response rating: scale 0 to 100 (0 no effect, 100 complete control)
Outline: as §1

[10] = system: woolly cupgrass (Eriochloa villosa); conditions: for Plant response rating, Cupgrass, Woolly: Preemergence; for Plant response rating (scale of 0 to 100), Cupgrass, Woolly / Cupgrass, Woolly plant response rating: Postemergence; for Cupgrass, Woolly plant response rating: scale 0 to 100 (0 no effect, 100 complete control)
Outline: as §1

[11] = system: yellow nutsedge (Cyperus esculentus); conditions: for Plant response rating, Nutsedge, Yellow: Preemergence; for Plant response rating (scale of 0 to 100), Nutsedge, Yellow / Nutsedge, Yellow plant response rating: Postemergence; for Nutsedge, Yellow plant response rating: scale 0 to 100 (0 no effect, 100 complete control)
Outline: as §1

[12] = 62 g ai/ha, scale 0 to 100, 0 no effect, 100 complete control
[13] = 16 g ai/ha, scale 0 to 100, 0 no effect, 100 complete control
[14] = 31 g ai/ha, scale 0 to 100, 0 no effect, 100 complete control

SMILES: CCOC(=O)Cc1nc(C2CC2)nc(N=CN(C)C)c1Br [Compound 33]
- Plant response rating, Cocklebur [1, 12]: 0
- Plant response rating, Cocklebur ([1]; 125 g ai/ha, scale 0 to 100): 0
- Plant response rating, Cocklebur ([1]; 250 g ai/ha, scale 0 to 100): 90
- Plant response rating, Cocklebur ([1]; 500 g ai/ha, scale 0 to 100): 95
- Plant response rating, Sunflower [2, 12]: 0
- Plant response rating, Sunflower ([2]; 125 g ai/ha, scale 0 to 100): 70
- Plant response rating, Sunflower ([2]; 250 g ai/ha, scale 0 to 100): 80
- Plant response rating, Sunflower ([2]; 500 g ai/ha, scale 0 to 100): 90
- Plant response rating, Ragweed [3, 12]: 0
- Plant response rating, Ragweed ([3]; 125 g ai/ha, scale 0 to 100): 20
- Plant response rating, Ragweed ([3]; 250 g ai/ha, scale 0 to 100): 70
- Plant response rating, Ragweed ([3]; 500 g ai/ha, scale 0 to 100): 90
- Plant response rating, Crabgrass [4, 12]: 0
- Plant response rating, Crabgrass ([4]; 125 g ai/ha, scale 0 to 100): 20
- Plant response rating, Crabgrass ([4]; 250 g ai/ha, scale 0 to 100): 100
- Plant response rating, Crabgrass ([4]; 500 g ai/ha, scale 0 to 100): 100
- Plant response rating, Nightshade [5, 12]: 0
- Plant response rating, Nightshade ([5]; 125 g ai/ha, scale 0 to 100): 50
- Plant response rating, Nightshade ([5]; 250 g ai/ha, scale 0 to 100): 95
- Plant response rating, Nightshade ([5]; 500 g ai/ha, scale 0 to 100): 100
- Plant response rating, Foxtail, Giant [6, 12]: 0
- Plant response rating, Foxtail, Giant ([6]; 125 g ai/ha, scale 0 to 100): 10
- Plant response rating, Foxtail, Giant ([6]; 250 g ai/ha, scale 0 to 100): 50
- Plant response rating, Foxtail, Giant ([6]; 500 g ai/ha, scale 0 to 100): 50
- Plant response rating, Kochia (kochia (Kochia scoparia); 250 g ai/ha, scale 0 to 100): 50
- Plant response rating, Kochia (kochia (Kochia scoparia); 500 g ai/ha, scale 0 to 100): 50
- Plant response rating, Morningglory [7, 12]: 0
- Plant response rating, Morningglory ([7]; 125 g ai/ha, scale 0 to 100): 85
- Plant response rating, Morningglory ([7]; 250 g ai/ha, scale 0 to 100): 90
- Plant response rating, Morningglory ([7]; 500 g ai/ha, scale 0 to 100): 95
- Plant response rating, Pigweed [8, 12]: 85
- Plant response rating, Pigweed ([8]; 125 g ai/ha, scale 0 to 100): 90
- Plant response rating, Pigweed ([8]; 250 g ai/ha, scale 0 to 100): 90
- Plant response rating, Pigweed ([8]; 500 g ai/ha, scale 0 to 100): 90
- Plant response rating, Velvetleaf [9, 12]: 0
- Plant response rating, Velvetleaf ([9]; 125 g ai/ha, scale 0 to 100): 20
- Plant response rating, Velvetleaf ([9]; 250 g ai/ha, scale 0 to 100): 60
- Plant response rating, Velvetleaf ([9]; 500 g ai/ha, scale 0 to 100): 85
- Plant response rating, Cupgrass, Woolly [10, 12]: 0
- Plant response rating, Cupgrass, Woolly ([10]; 125 g ai/ha, scale 0 to 100): 0
- Plant response rating, Cupgrass, Woolly ([10]; 250 g ai/ha, scale 0 to 100): 0
- Plant response rating, Cupgrass, Woolly ([10]; 500 g ai/ha, scale 0 to 100): 0
- Plant response rating, Nutsedge, Yellow [11, 12]: 0
- Plant response rating, Nutsedge, Yellow ([11]; 125 g ai/ha, scale 0 to 100): 0
- Plant response rating, Nutsedge, Yellow ([11]; 250 g ai/ha, scale 0 to 100): 0
- Plant response rating, Nutsedge, Yellow ([11]; 500 g ai/ha, scale 0 to 100): 0

SMILES: CCOC(=O)C(OC(C)=O)c1nc(C2CC2)nc(N)c1Br (stereo not drawn) [Compound 47]
- Plant response rating (scale of 0 to 100), Cocklebur ([1]; 16 g ai/ha): 35
- Plant response rating (scale of 0 to 100), Cocklebur ([1]; 31 g ai/ha): 45
- Cocklebur plant response rating ([1]; 62 g ai/ha): 60
- Cocklebur plant response rating ([1]; 125 g ai/ha): 65
- Plant response rating, Cocklebur [1, 13]: 0
- Plant response rating, Cocklebur [1, 14]: 0
- Plant response rating, Cocklebur [1, 12]: 70
- Plant response rating, Cocklebur ([1]; 125 g ai/ha, scale 0 to 100): 75
- Plant response rating, Sunflower [2, 13]: 0
- Plant response rating, Sunflower [2, 14]: 0
- Plant response rating, Sunflower [2, 12]: 20
- Plant response rating, Sunflower ([2]; 125 g ai/ha, scale 0 to 100): 100
- Plant response rating (scale of 0 to 100), Ragweed ([3]; 16 g ai/ha): 0
- Plant response rating (scale of 0 to 100), Ragweed ([3]; 31 g ai/ha): 0
- Ragweed plant response rating ([3]; 62 g ai/ha): 40
- Ragweed plant response rating ([3]; 125 g ai/ha): 80
- Plant response rating, Ragweed [3, 13]: 0
- Plant response rating, Ragweed [3, 12]: 45
- Plant response rating, Ragweed ([3]; 125 g ai/ha, scale 0 to 100): 65
- Plant response rating (scale of 0 to 100), Crabgrass ([4]; 16 g ai/ha): 0
- Plant response rating (scale of 0 to 100), Crabgrass ([4]; 31 g ai/ha): 0
- Crabgrass plant response rating ([4]; 62 g ai/ha): 0
- Crabgrass plant response rating ([4]; 125 g ai/ha): 20
- Plant response rating, Crabgrass [4, 13]: 20
- Plant response rating, Crabgrass [4, 14]: 100
- Plant response rating, Crabgrass [4, 12]: 100
- Plant response rating, Crabgrass ([4]; 125 g ai/ha, scale 0 to 100): 100
- Plant response rating, Nightshade [5, 13]: 80
- Plant response rating, Nightshade [5, 14]: 85
- Plant response rating, Nightshade [5, 12]: 95
- Plant response rating, Nightshade ([5]; 125 g ai/ha, scale 0 to 100): 100
- Plant response rating (scale of 0 to 100), Foxtail, Giant ([6]; 16 g ai/ha): 0
- Plant response rating (scale of 0 to 100), Foxtail, Giant ([6]; 31 g ai/ha): 0
- Foxtail, Giant plant response rating ([6]; 62 g ai/ha): 0
- Foxtail, Giant plant response rating ([6]; 125 g ai/ha): 0
- Plant response rating, Foxtail, Giant [6, 13]: 0
- Plant response rating, Foxtail, Giant [6, 14]: 0
- Plant response rating, Foxtail, Giant [6, 12]: 0
- Plant response rating, Foxtail, Giant ([6]; 125 g ai/ha, scale 0 to 100): 20
- Plant response rating (scale of 0 to 100), Kochia (kochia (Kochia scoparia); 16 g ai/ha): 0
- Plant response rating (scale of 0 to 100), Kochia (kochia (Kochia scoparia); 31 g ai/ha): 0
- Kochia plant response rating (kochia (Kochia scoparia); 62 g ai/ha): 20
- Kochia plant response rating (kochia (Kochia scoparia); 125 g ai/ha): 100
- Plant response rating, Kochia (kochia (Kochia scoparia); [13]): 0
- Plant response rating, Kochia (kochia (Kochia scoparia); [12]): 0
- Plant response rating, Kochia (kochia (Kochia scoparia); 125 g ai/ha, scale 0 to 100): 100
- Plant response rating (scale of 0 to 100), Morningglory ([7]; 16 g ai/ha): 20
- Plant response rating (scale of 0 to 100), Morningglory ([7]; 31 g ai/ha): 35
- Morningglory plant response rating ([7]; 62 g ai/ha): 40
- Morningglory plant response rating ([7]; 125 g ai/ha): 65
- Plant response rating, Morningglory [7, 13]: 0
- Plant response rating, Morningglory [7, 14]: 0
- Plant response rating, Morningglory [7, 12]: 70
- Plant response rating, Morningglory ([7]; 125 g ai/ha, scale 0 to 100): 100
- Plant response rating (scale of 0 to 100), Pigweed ([8]; 16 g ai/ha): 0
- Plant response rating (scale of 0 to 100), Pigweed ([8]; 31 g ai/ha): 15
- Pigweed plant response rating ([8]; 62 g ai/ha): 45
- Pigweed plant response rating ([8]; 125 g ai/ha): 70
- Plant response rating, Pigweed [8, 13]: 0
- Plant response rating, Pigweed [8, 14]: 80
- Plant response rating, Pigweed [8, 12]: 85
- Plant response rating, Pigweed ([8]; 125 g ai/ha, scale 0 to 100): 85
- Plant response rating (scale of 0 to 100), Velvetleaf ([9]; 16 g ai/ha): 0
- Plant response rating (scale of 0 to 100), Velvetleaf ([9]; 31 g ai/ha): 0
- Velvetleaf plant response rating ([9]; 62 g ai/ha): 0
- Velvetleaf plant response rating ([9]; 125 g ai/ha): 0
- Plant response rating, Velvetleaf [9, 13]: 0
- Plant response rating, Velvetleaf [9, 14]: 20
- Plant response rating, Velvetleaf [9, 12]: 20
- Plant response rating, Velvetleaf ([9]; 125 g ai/ha, scale 0 to 100): 50
- Plant response rating (scale of 0 to 100), Cupgrass, Woolly ([10]; 16 g ai/ha): 0
- Plant response rating (scale of 0 to 100), Cupgrass, Woolly ([10]; 31 g ai/ha): 0
- Cupgrass, Woolly plant response rating ([10]; 62 g ai/ha): 0
- Cupgrass, Woolly plant response rating ([10]; 125 g ai/ha): 0
- Plant response rating, Cupgrass, Woolly [10, 13]: 0
- Plant response rating, Cupgrass, Woolly [10, 14]: 0
- Plant response rating, Cupgrass, Woolly [10, 12]: 0
- Plant response rating, Cupgrass, Woolly ([10]; 125 g ai/ha, scale 0 to 100): 0
- Plant response rating (scale of 0 to 100), Nutsedge, Yellow ([11]; 16 g ai/ha): 0
- Plant response rating (scale of 0 to 100), Nutsedge, Yellow ([11]; 31 g ai/ha): 0
- Nutsedge, Yellow plant response rating ([11]; 62 g ai/ha): 0
- Nutsedge, Yellow plant response rating ([11]; 125 g ai/ha): 0
- Plant response rating, Nutsedge, Yellow [11, 13]: 0
- Plant response rating, Nutsedge, Yellow [11, 14]: 0
- Plant response rating, Nutsedge, Yellow [11, 12]: 0
- Plant response rating, Nutsedge, Yellow ([11]; 125 g ai/ha, scale 0 to 100): 0
